According to the supplement of paper PMC10307832:

Key:
Assay in all cases: relative viability (nuclei count vs DMSO), 5 days (fraction); higher = more cells survive
NCI-H441 = test system: NCI-H441
Summary of the method: (§1)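 Nuclei were stained with Hoechst during a one-step fixation (final 0.05% Triton X-100, 1% formaldehyde, 1 ug/ml Hoechst) carried out 5 days after dosing, then counted on 4× images. The cells, lung cancer lines in 1536-well plates, had been dosed by pin tool the day after seeding with one drug alone or a fixed anchor-drug dose plus five library-drug doses (not always all listed) in √10 steps. Relative viability is the nuclei count in treated wells divided by that in vehicle wells, and each value is the median of duplicate plates.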

NCI-H322M = test system: NCI-H322M
Summary of the method: as §1

NCI-H1993 = test system: NCI-H1993
Summary of the method: as §1

CAL-12T = test system: CAL-12T
Summary of the method: as §1

UMC-11 = test system: UMC-11
Summary of the method: as §1

NCI-H358 = test system: NCI-H358
Summary of the method: as §1

COR-L 105 = test system: COR-L 105
Summary of the method: as §1

ABC-1 = test system: ABC-1
Summary of the method: as §1

EPLC-272H = test system: EPLC-272H
Summary of the method: as §1

NCI-H2085 = test system: NCI-H2085
Summary of the method: as §1

NCI-H522 = test system: NCI-H522
Summary of the method: as §1

EMC-BAC-2 = test system: EMC-BAC-2
Summary of the method: as §1

HCC-78 = test system: HCC-78
Summary of the method: as §1

HOP-62 = test system: HOP-62
Summary of the method: as §1

NCI-H1666 = test system: NCI-H1666
Summary of the method: as §1

NCI-H2023 = test system: NCI-H2023
Summary of the method: as §1

ChaGo-K-1 = test system: ChaGo-K-1
Summary of the method: as §1

HCC-15 = test system: HCC-15
Summary of the method: as §1

LXF-289 = test system: LXF-289
Summary of the method: as §1

NCI-H2126 = test system: NCI-H2126
Summary of the method: as §1

NCI-H1915 = test system: NCI-H1915
Summary of the method: as §1

NCI-H1755 = test system: NCI-H1755
Summary of the method: as §1

NCI-H1975 = test system: NCI-H1975
Summary of the method: as §1

NCI-H3122 = test system: NCI-H3122
Summary of the method: as §1

`Clc1ccc(Nc2nnc(Cc3ccncc3)c3ccccc23)cc1` [Vatalanib] + N=C(N)NC(=N)NCCc1ccccc1 [Phenformin] (partner 250 µM) gave a relative viability (NCI-H441; first compound 0.04 µM) of 0.904, a relative viability (NCI-H441; first compound 0.1265 µM) of 0.761 and a relative viability (NCI-H441; first compound 0.4 µM) of 0.849. For the same compound, the relative viability (NCI-H441; first compound 1.265 µM) was 0.729, the relative viability (NCI-H441; first compound 4 µM) was 0.819 and the relative viability (NCI-H322M; first compound 0.04 µM) was 0.755. The relative viability (NCI-H322M; first compound 0.1265 µM) was 0.789, the relative viability (NCI-H322M; first compound 0.4 µM) was 0.826 and the relative viability (NCI-H322M; first compound 1.265 µM) was 0.685. The relative viability (NCI-H322M; first compound 4 µM) was 0.759, the relative viability (NCI-H1993; first compound 0.04 µM) was 0.492 and the relative viability (NCI-H1993; first compound 0.1265 µM) was 0.533. It also gave a relative viability (NCI-H1993; first compound 0.4 µM) of 0.601, a relative viability (NCI-H1993; first compound 1.265 µM) of 0.482 and a relative viability (NCI-H1993; first compound 4 µM) of 0.534. The relative viability (CAL-12T; first compound 0.04 µM) was 0.633, the relative viability (CAL-12T; first compound 0.1265 µM) was 0.495 and the relative viability (CAL-12T; first compound 0.4 µM) was 0.328. The relative viability (CAL-12T; first compound 1.265 µM) was 0.539, the relative viability (CAL-12T; first compound 4 µM) was 0.567 and the relative viability (UMC-11; first compound 0.04 µM) was 0.311. For the same compound, the relative viability (UMC-11; first compound 0.1265 µM) was 0.328, the relative viability (UMC-11; first compound 0.4 µM) was 0.319 and the relative viability (UMC-11; first compound 1.265 µM) was 0.298. It also gave a relative viability (UMC-11; first compound 4 µM) of 0.333, a relative viability (NCI-H358; first compound 0.04 µM) of 0.32 and a relative viability (NCI-H358; first compound 0.1265 µM) of 0.304. It also gave a relative viability (NCI-H358; first compound 0.4 µM) of 0.381, a relative viability (NCI-H358; first compound 1.265 µM) of 0.367 and a relative viability (NCI-H358; first compound 4 µM) of 0.326. The relative viability (COR-L 105; first compound 0.04 µM) was 0.469, the relative viability (COR-L 105; first compound 0.1265 µM) was 0.37 and the relative viability (COR-L 105; first compound 0.4 µM) was 0.475. It also gave a relative viability (COR-L 105; first compound 1.265 µM) of 0.45, a relative viability (COR-L 105; first compound 4 µM) of 0.423 and a relative viability (ABC-1; first compound 0.04 µM) of 0.241. For the same compound, the relative viability (ABC-1; first compound 0.1265 µM) was 0.242, the relative viability (ABC-1; first compound 1.265 µM) was 0.262 and the relative viability (ABC-1; first compound 4 µM) was 0.222. It also gave a relative viability (EPLC-272H; first compound 0.04 µM) of 0.324, a relative viability (EPLC-272H; first compound 0.1265 µM) of 0.323 and a relative viability (EPLC-272H; first compound 0.4 µM) of 0.275. It also gave a relative viability (EPLC-272H; first compound 1.265 µM) of 0.349, a relative viability (EPLC-272H; first compound 4 µM) of 0.348 and a relative viability (NCI-H2085; first compound 0.04 µM) of 0.701. The relative viability (NCI-H2085; first compound 0.1265 µM) was 0.668, the relative viability (NCI-H2085; first compound 0.4 µM) was 0.734 and the relative viability (NCI-H2085; first compound 1.265 µM) was 0.724. For the same compound, the relative viability (NCI-H2085; first compound 4 µM) was 0.632, the relative viability (NCI-H522; first compound 0.04 µM) was 0.699 and the relative viability (NCI-H522; first compound 0.1265 µM) was 0.531. The relative viability (NCI-H522; first compound 0.4 µM) was 0.673, the relative viability (NCI-H522; first compound 1.265 µM) was 0.623 and the relative viability (NCI-H522; first compound 4 µM) was 0.597. It also gave a relative viability (EMC-BAC-2; first compound 0.04 µM) of 0.511, a relative viability (EMC-BAC-2; first compound 0.1265 µM) of 0.538 and a relative viability (EMC-BAC-2; first compound 0.4 µM) of 0.542. For the same compound, the relative viability (EMC-BAC-2; first compound 1.265 µM) was 0.497, the relative viability (EMC-BAC-2; first compound 4 µM) was 0.512 and the relative viability (HCC-78; first compound 0.04 µM) was 0.589. For the same compound, the relative viability (HCC-78; first compound 0.1265 µM) was 0.613, the relative viability (HCC-78; first compound 0.4 µM) was 0.631 and the relative viability (HCC-78; first compound 1.265 µM) was 0.649. It also gave a relative viability (HCC-78; first compound 4 µM) of 0.575, a relative viability (HOP-62; first compound 0.04 µM) of 0.668 and a relative viability (HOP-62; first compound 0.1265 µM) of 0.65. The relative viability (HOP-62; first compound 0.4 µM) was 0.649, the relative viability (HOP-62; first compound 1.265 µM) was 0.624 and the relative viability (HOP-62; first compound 4 µM) was 0.633. The relative viability (NCI-H1666; first compound 0.04 µM) was 0.563, the relative viability (NCI-H1666; first compound 0.1265 µM) was 0.566 and the relative viability (NCI-H1666; first compound 0.4 µM) was 0.449. It also gave a relative viability (NCI-H1666; first compound 1.265 µM) of 0.519, a relative viability (NCI-H1666; first compound 4 µM) of 0.559 and a relative viability (NCI-H2023; first compound 0.04 µM) of 0.447. For the same compound, the relative viability (NCI-H2023; first compound 0.1265 µM) was 0.397, the relative viability (NCI-H2023; first compound 0.4 µM) was 0.477 and the relative viability (NCI-H2023; first compound 1.265 µM) was 0.376. The relative viability (NCI-H2023; first compound 4 µM) was 0.341, the relative viability (ChaGo-K-1; first compound 0.04 µM) was 0.453 and the relative viability (ChaGo-K-1; first compound 0.1265 µM) was 0.407. For the same compound, the relative viability (ChaGo-K-1; first compound 0.4 µM) was 0.522, the relative viability (ChaGo-K-1; first compound 1.265 µM) was 0.432 and the relative viability (ChaGo-K-1; first compound 4 µM) was 0.431. For the same compound, the relative viability (HCC-15; first compound 0.04 µM) was 0.487, the relative viability (HCC-15; first compound 0.1265 µM) was 0.46 and the relative viability (HCC-15; first compound 0.4 µM) was 0.441. For the same compound, the relative viability (HCC-15; first compound 1.265 µM) was 0.443, the relative viability (HCC-15; first compound 4 µM) was 0.457 and the relative viability (LXF-289; first compound 0.04 µM) was 0.505. For the same compound, the relative viability (LXF-289; first compound 0.1265 µM) was 0.465, the relative viability (LXF-289; first compound 0.4 µM) was 0.558 and the relative viability (LXF-289; first compound 1.265 µM) was 0.53. The relative viability (LXF-289; first compound 4 µM) was 0.539, the relative viability (NCI-H2126; first compound 0.04 µM) was 0.508 and the relative viability (NCI-H2126; first compound 0.1265 µM) was 0.521. For the same compound, the relative viability (NCI-H2126; first compound 0.4 µM) was 0.453, the relative viability (NCI-H2126; first compound 1.265 µM) was 0.487 and the relative viability (NCI-H2126; first compound 4 µM) was 0.546. For the same compound, the relative viability (NCI-H1915; first compound 0.04 µM) was 0.374, the relative viability (NCI-H1915; first compound 0.1265 µM) was 0.345 and the relative viability (NCI-H1915; first compound 0.4 µM) was 0.399. The relative viability (NCI-H1915; first compound 1.265 µM) was 0.38, the relative viability (NCI-H1915; first compound 4 µM) was 0.371 and the relative viability (NCI-H1755; first compound 0.04 µM) was 0.613. It also gave a relative viability (NCI-H1755; first compound 0.1265 µM) of 0.577, a relative viability (NCI-H1755; first compound 0.4 µM) of 0.661 and a relative viability (NCI-H1755; first compound 1.265 µM) of 0.596. It also gave a relative viability (NCI-H1755; first compound 4 µM) of 0.603, a relative viability (NCI-H1975; first compound 0.04 µM) of 0.405 and a relative viability (NCI-H1975; first compound 0.1265 µM) of 0.415. It also gave a relative viability (NCI-H1975; first compound 0.4 µM) of 0.422, a relative viability (NCI-H1975; first compound 1.265 µM) of 0.357 and a relative viability (NCI-H1975; first compound 4 µM) of 0.4. The relative viability (NCI-H3122; first compound 0.04 µM) was 0.401, the relative viability (NCI-H3122; first compound 0.1265 µM) was 0.365 and the relative viability (NCI-H3122; first compound 1.265 µM) was 0.316. For the same compound, the relative viability (NCI-H3122; first compound 4 µM) was 0.323.
